Drawing on ChEMBL document CHEMBL3046156, “Neoclerodane diterpenoids from Teucrium polium subsp. polium and their antifeedant activity” (2003), this text covers AFI and FI50 for four compounds.

For test [1], the system named is Spodoptera littoralis. Nature of the test: Antifeedant activity against Spodoptera littoralis assessed as antifeedant index at 100 ppm by binary choice bioassay. The format is functional.
The test system of test [2] is Spodoptera littoralis. Put plainly: Antifeedant activity against Spodoptera littoralis by binary choice bioassay. The class given is functional.

For the compound `CC(=O)OC[C@@]12C(=O)[C@H]3OC(=O)[C@@](C[C@H](OC(C)=O)c4ccoc4)(C1CCC[C@]21CO1)[C@@H]3C` (stereo partly specified), in the test with Spodoptera littoralis [1], the AFI is on record as 6.9%. Moreover, the FI50 in the test with Spodoptera littoralis [2] turned out to be 230 ppm.
For `CC(=O)OC[C@@]12C(=O)[C@H]3O[C@H](OC(C)=O)[C@](C[C@H](OC(C)=O)c4ccoc4)([C@@H]3C)[C@H]1CCC[C@]21CO1` [ACETYL-AUROPOLIN], in that order: 57.8% and 90 ppm.
As to `CC(=O)OC[C@@]12C(=O)[C@H]3O[C@H](O)[C@](C[C@H](OC(C)=O)c4ccoc4)([C@@H]3C)[C@H]1CCC[C@]21CO1` [AUROPOLIN], the AFI in the test with Spodoptera littoralis [1] is on record as 17.8%.
As for `CC(=O)OC[C@@]12C(=O)[C@@H](OC(C)=O)[C@@H](C)[C@]3(C[C@@H](c4ccoc4)OC3=O)[C@H]1CCC[C@]21CO1` [CAPITATIN], in the test on Spodoptera littoralis [1], the AFI amounted to 31%.
